Data taken from patent US20240286994A1, “NOVEL SQUARAMIDE DERIVATIVE AND USE THEREOF” (PUSAN NATIONAL UNIVERSITY INDUSTRY-UNIVERSITY COOPERATION …, priority 2021, published 2024).

System: eIF2α phosphorylation
Test: Phospho-eIF2α (Ser51) sandwich ELISA in K562 cells
Format: cell-based
Settings: serum-free RPMI, 10 μM compound, 6 hours; for fold induction at 10 µM: Homo sapiens, DMSO-treated control set to 1, read-out: Multiple changes in eIF2α phosphorylation at 10 μM (absorbance standardized to control = 1); for Multiple changes in eIF2α phosphorylation at 10 μM (absorbance standardized to control = 1): DMSO-treated control set to 1
Experimental: Pathscan Phospho-eIF2a (Ser51) Sandwich ELISA Kit #7286 from Cell signaling was used. The K562 cell line was cultured in serum-free RPMI medium at 37° C. in the presence of 5% CO2. Cells were treated with test compounds at a concentration of 10 μM. Six hours after compound treatment, the cells were lysed with a lysis buffer included in the kit to obtain 50 μg of protein by quantification. Afterwards, ELISA assay was performed according to the manufacturer's protocol to obtain absorbance. The absorbance for each obtained compound was standardized to a value of which the control (DMSO-treated) is set to 1.

Row | Compound | fold induction at 10 µM | Multiple changes in eIF2α phosphorylation at 10 μM (absorbance standardized to control = 1)
1 | COc1cccc(Nc2c(N[C@H]3CC[C@H](Oc4ccc(C(F)(F)F)cc4)CC3)c(=O)c2=O)c1 [Compound 33, 3-((3-Methoxyphenyl)amino)-4-(((1,4-trans)-4-(4-(trifluoromethyl)phenoxy)cyclohexyl)amino)cyclobut-3-ene-1,2-dione] | 0.83 | 
2 | CC(C)(C)c1ccccc1Nc1c(N[C@H]2CC[C@H](Oc3ccc(S(C)(=O)=O)cc3)CC2)c(=O)c1=O [Compound 77, 3-((2-(tert-Butyl)phenyl)amino)-4-(((1,4-trans)-4-(4-(methylsulfonyl)phenoxy)cyclohexyl)amino)cyclobut-3-ene-1,2-dione] |  | 1.70
3 | CS(=O)(=O)c1ccc(O[C@H]2CC[C@H](Nc3c(Nc4ccccc4F)c(=O)c3=O)CC2)cc1 [Compound 65, 3-((2-Fluorophenyl)amino)-4-(((1,4-trans)-4-(4-(methylsulfonyl)phenoxy)cyclohexyl)amino)cyclobut-3-ene-1,2-dione] | 1.07 | 
4 | CC(C)(C)c1cccc(Nc2c(N[C@H]3CC[C@H](Oc4ccc(C(F)(F)F)cc4)CC3)c(=O)c2=O)c1 [Compound 28, 3-((3-(tert-Butyl)phenyl)amino)-4-(((1,4-trans)-4-(4-(trifluoromethyl)phenoxy)cyclohexyl)amino)cyclobut-3-ene-1,2-dione] |  | 1.92
